Experimental data published in paper PMC7926640, “Synthesis, Neuroprotection, and Antioxidant Activity of 1,1′-Biphenylnitrones as α-Phenyl-N-tert-butylnitrone Analogues in In Vitro Ischemia Models” (Molecules, 2021).

Target: T1, soybean lipoxygenase (LOX) (Glycine max, UniProt P08170)
T1 construct: gene LOX1.1
T1 sequence (P08170 1-839): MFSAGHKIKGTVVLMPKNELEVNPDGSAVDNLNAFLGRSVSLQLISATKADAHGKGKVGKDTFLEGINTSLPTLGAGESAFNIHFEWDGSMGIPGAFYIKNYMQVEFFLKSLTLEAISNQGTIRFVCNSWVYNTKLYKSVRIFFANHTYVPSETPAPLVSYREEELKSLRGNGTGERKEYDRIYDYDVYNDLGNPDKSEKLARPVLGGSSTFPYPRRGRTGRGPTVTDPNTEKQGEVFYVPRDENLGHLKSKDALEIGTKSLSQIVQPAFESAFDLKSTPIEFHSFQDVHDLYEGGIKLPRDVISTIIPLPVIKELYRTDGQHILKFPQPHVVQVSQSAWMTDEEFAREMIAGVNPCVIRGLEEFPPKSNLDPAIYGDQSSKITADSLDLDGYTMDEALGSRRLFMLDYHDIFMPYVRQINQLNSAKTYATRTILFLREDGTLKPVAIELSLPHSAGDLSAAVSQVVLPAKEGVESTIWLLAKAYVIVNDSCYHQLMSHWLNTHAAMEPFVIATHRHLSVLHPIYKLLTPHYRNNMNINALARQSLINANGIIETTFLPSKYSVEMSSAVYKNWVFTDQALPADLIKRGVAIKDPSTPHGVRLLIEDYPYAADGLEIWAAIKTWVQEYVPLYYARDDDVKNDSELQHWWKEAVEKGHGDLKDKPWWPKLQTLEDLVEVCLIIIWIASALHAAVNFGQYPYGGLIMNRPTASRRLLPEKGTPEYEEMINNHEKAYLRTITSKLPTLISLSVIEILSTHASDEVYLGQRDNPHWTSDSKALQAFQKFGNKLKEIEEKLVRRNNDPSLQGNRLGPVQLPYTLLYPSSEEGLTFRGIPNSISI
Test: soybean LOX inhibition, linoleate oxidation monitored at […] nm
Type: biochemical

Row | IC50 [µM] | SMILES
1 | 100 | C/[N+]([O-])=C/c1ccc(-c2ccccc2)cc1 [compound 1, (Z)-1-([1,1′-Biphenyl]-4-yl)-N-methylmethanimine oxide]
2 | 57.5 | [O-]/[N+](=C\c1ccc(-c2ccccc2)cc1)Cc1ccccc1 [compound 3, (Z)-1-([1,1′-Biphenyl]-4-yl)-N-benzylmethanimine oxide]
3 | 100 | CC(C)(C)/[N+]([O-])=C/c1ccc(-c2ccc(/C=[N+](\[O-])C(C)(C)C)cc2)cc1 [compound 5, (1Z,1′Z)-1,1′-([1,1′-Biphenyl]-4,4′-diyl)bis(N-tert-butylmethanimineoxide)]
